Reference: patent EP3069727B1, “PHARMACEUTICAL COMPOSITION FOR CANCER PREVENTION AND TREATMENT CONTAINING PEPTIDE ORIGINATED FROM C12ORF59 PROTEIN AS AN ACTIVE INGREDIENT” (Korea Research Institute of Bioscience and Biotechnology, priority 2015, dated 2018)
Residues, ends and D or L forms follow the SMILES beside them.

Legend:
[1] = test system: C8161 (human melanoma) cells; assay: In vivo experimental metastasis mouse model; set-up: species or system Nude mice (BALB/c-nude); conditions: 200µg/100µℓ PBS intravenously twice per week (total 7 times); 4 weeks; vs PBS
Description: In vivo therapeutic efficacy of A_intact peptide was evaluated using experimental metastasis mouse model. The in vivo experimental metastasis model was constructed as described below.
Nude mice (BALB/c-nude, 6 weeks old, female) were obtained from Charles River Japan (Japan). C8161 (human melanoma) cells (8 x 10^5 cells in 100 µℓ PBS per mouse) were injected into the tail vein. Two days later, mice were randomized into control and treatment groups (n=5 per group) . Modified A_intact peptide (200µg/100µℓ PBS) or A_intact-Fc fusion protein (100µg/100µℓ PBS) were intravenously injected into each mouse twice per week (total 7 times). As a negative control, PBS (100µℓ/mouse) was injected. All animals were killed at 4 weeks after injection of cancer cells. Lung and liver were excised and fixed in 10% formalin for 24 h. Metastatic foci on the surface of lung and liver were counted.

SW480sub cells = assay: Invasion assay (Matrigel-coated transwell, collagen type I chemoattractant) with peptide-treated SW480sub cells; type: cell-based; conditions: for invasion reduced compared to the vehicle control: peptide 50 µM
Description: SW480sub was subpopulation of SW480 having high in vitro invasion and in vivo metastasis ability. The effect of each peptide on colorectal cancer cell invasion was analyzed using the said SW480sub. SW480sub cells were mixed with each peptide, followed by pre-incubation for 30 minutes.
(§1) Particularly, the porous membrane of 24-well transwell plate (8 µm pore size; Costar, USA) was coated with 100 µℓ of matrigel (BD Biosciences, USA) diluted in serum free medium at the concentration of 250 µg/mℓ, which stood at room temperature for 1 hour for fixing. The lower part of the transwell plate was coated with 100 µℓ of collagen type I (Sigma) at the concentration of 20 µg/mℓ. The said collagen type I was used as a chemoattractant. 1×10^4 cells resuspended in serum free medium were distributed in the upper chamber of the said 24-well transwell plate, followed by culture at 37°C with 5% CO2 for 48 hours, during which the cells were induced to migrate from the upper chamber to the lower chamber. The non-migrated cells were eliminated from the surface of the upper chamber. […] The excessive crystal violet solution was washed off with distilled water. The selected area (×100) was photographed. The number of the cells migrated was counted from 5 different selected areas. Then, mean value and standard error were obtained.

colorectal cancer cells = assay: Cellular survival rate of colorectal cancer cells measured by absorbance; type: cell-based; conditions: as in Example <3-2>
Description: (§2) Particularly, 100 µℓ of poly-HEMA (Sigma) at the concentration of 12 mg/mℓ was loaded in 96-well plate, which stood in clean bench for 1 day, followed by drying. On the next day, the plate was coated with Poly-HEMA once again. Cells were distributed in the poly-HEMA coated plate by 100 µℓ/well (1×10^4 cells/well). At that time, serum-free medium was used. 6 days later, 10 µℓ of CCK-8 reagent (Dojindo cat. CK04-13) was added to each well, followed by reaction for 3 hours. Then, OD450 was measured.
In particular, a cellular survival rate was measured using absorbance in the same manner as in Example <3-2>.

SW480 cells [2] = assay: Invasion assay with peptide-treated SW480 cells; type: cell-based; conditions: concentration not given
Description: as §1
SW480 colorectal cancer cells were treated with peptides originated from C12orf59, and effects of the peptids on invasion of the cells were analyzed.

[3] = test system: C8161 (human melanoma) cell line; assay: Invasion assay with C8161 cells (Matrigel-coated Transwell); type: cell-based; conditions: 24 h
Description: Specifically, C8161 (human melanoma) cell line was cultured in DMEM containing 10% FBS, penicillin-streptomycin, L-glutamine, sodium pyruvate and glucose. C8161 cells (1 x 10^4) in the presence of the peptide were plated in serum-free medium on 24-well Transwell inserts (8 µm pore size; Costar, USA) coated with 25 µg of […] (BD Biosciences, USA). The underside of the insert was coated with 100 µℓ of collagen type I (Sigma) at the concentration of 5 µg/mℓ. […] The number of cells that had invaded was counted in five representative fields per insert. Then, mean value and standard deviation were obtained.

SW480 cells [4] = assay: Cell survivability under anchorage independent condition (poly-HEMA plate, CCK-8, OD450); type: cell-based; conditions: peptide 100 µg/mℓ, 6 days
Description: 6 days later, cell survivability was measured by colorimetric technique under the anchorage independent condition.
as §2

Row | Molecule | invasion reduced compared to the vehicle control (SW480sub cells) [%] | effect on the survival of colorectal cancer cells (colorectal cancer cells) | invasion of cells reduced by (SW480 cells [2]) [%] | other results
1 | CC(=O)N[C@@H](CCC(=O)O)C(=O)N[C@@H](CCC(=O)O)C(=O)N[C@@H](CC(N)=O)C(=O)N[C@@H](CS)C(=O)NCC(=O)N[C@@H](CC(N)=O)C(=O)N1CCC[C@H]1C(=O)N[C@@H](CCC(=O)O)C(=O)N[C@@H](Cc1c[nH]cn1)C(=O)N[C@@H](CS)C(=O)N[C@@H](CC(C)C)C(=O)N[C@H](C(=O)N[C@H](C(=O)N[C@@H](CC(=O)O)C(=O)N[C@@H](Cc1c[nH]c2ccccc12)C(=O)N[C@H](C(=O)N[C@@H](Cc1c[nH]cn1)C(N)=O)C(C)C)[C@@H](C)O)[C@@H](C)O [Modified A_intact peptide] (Ac-EENCGNPEHCLTTDWVH-NH2) |  |  |  | metastasis to the liver (metastatic nodules) [1]: inhibited; metastasis to the lung (metastatic nodules) [1]: inhibited
2 | PCCISSCCLT [B_Cen] | 33 |  |  | 
3 | PCCISSCCLTTDWVH [B_N-term] |  | inhibitory effects on the survival of colorectal cancer cells in a concentration-dependent manner | 55 | 
4 | SWRPQPCCISSCCLT [B_C-term1] | 73 | inhibitory effects on the survival of colorectal cancer cells in a concentration-dependent manner | 45 | 
5 | SWRPQPCCISSCCLTTDWVH [B_intact, fragment of C12orf59 isoform 2 extracellular domain, 20 amino acids] |  |  | 47 | C8161 invasion reduced by ([3]; 30 µg/mℓ): 48%; C8161 invasion reduced by ([3]; 100 µg/mℓ): 70%; cell survivability reduced by (SW480 cells [4]): 90%; invasion rate reduced compared to the control (SW480sub cells; peptide 43 µM): 29%; colorectal cancer cell invasion reduced by (SW480sub cells; peptide 100 µg/mℓ, 48 hours): 90%
